Reference: patent publication US20250034201A1, “PRODRUGS OF GANAXOLONE” (priority 2022, published 2025)
≈ marks a conversion by molar mass, not a printed value. Like-named read-outs stand apart in the source and are kept apart here.

Key:
[1] = Stability in simulated gastric fluid (SGF); type: in vitro ADME
Description: (§1) The stability of exemplary compounds in simulated gastric fluid (SGF) and simulated intestinal fluid (SIF) was tested according to the following protocol.

[2] = Stability in simulated intestinal fluid (SIF); type: in vitro ADME
Description: as §1

[3] = Rat liver microsomal stability; type: in vitro ADME
Description: (§2) For several compounds only human liver microsomal stability was tested. […] The microsomal assays were carried out with and without the addition of NADPH at a final concentration of 1 mM. For negative control samples, NADPH reagent was not added. […] Note that compounds undergo only Phase I metabolism in liver microsomes.
(§3) CLint=the intrinsic hepatic clearance (uL/min/mg), where CLint is equal to 0.693/(t1/2×Cmp)

[4] = in vitro; type: in vitro ADME, human
Description: as §2

[5] = in vitro; conditions: for Observations: stability / GNX production in human plasma / half-life / Observations: stability / GNX production in rat plasma: plasma
Description: The plasma stability of exemplary compounds was tested using rat, mice, dog, and human plasma, according to the following protocol. For each test compound, samples at a final concentration of 2 μg/mL were prepared in blank plasma of selected species. All samples were incubated at 37° C. on a 150-RPM orbital shaker, and an aliquot was removed at pre-determined time points (0, 15, 30, 60, and 120 minutes). Samples were precipitated with three volumes of acetonitrile containing propranolol as internal standard, and centrifuged for 10 min at 2000 g before LC/MS/MS analysis of the supernatant solutions.

[6] = Measured solubility in buffer, LC-MS/MS; type: physicochemical; conditions: aqueous buffer, thermodynamic from solid
Description: […] The mixture was vortexed and a magnetic stirring bar was subsequently added to the vial. The vial was placed on a magnetic stirrer with constant stirring for 16-24 hours at room temperature. The pH of the top layer solution was measured. Subsequently, 200 μL of the top layer solution was placed in a 1.5 mL microcentrifuge tube and centrifuged at 18,000 g for 10 min at room temperature. A 10 μL aliquot of supernatant was added to 990 μL of methanol:water (1/:1, v/v) and vortexed. Then, one volume of acetonitrile containing internal standard was added to one volume of the above 100-fold diluted solution and the resulting solution was vortexed and placed in 96-well plate for LC-MS/MS analysis. […] LC-MS-MS analysis was performed utilizing multiple reaction monitoring for detection of characteristic ions for each test compound, additional related analytes and internal standard.

[7] = Dog liver microsomal stability; type: in vitro ADME
Description: as §2, §3
Certain compounds were also tested in mice and dog liver microsome assays according to the protocol outlined above. […].

[8] = Dog plasma stability; type: in vitro ADME
[9] = SGF with pepsin pH 1.2, 37° C., 60 min
[10] = SIF with pancreatin pH 6.8, 37° C., 60 min
[11] = rat liver microsomes 0.5 mg/mL, with NADPH, compound 0.5 μM, 37° C., read-out: Rat Liver Microsomal Stability t1/2
[12] = rat liver microsomes 0.5 mg/mL, with NADPH, compound 0.5 μM, read-out: Rat Liver Microsomal Stability CLint (uL/min/mg liver)
[13] = rat liver microsomes, no NADPH, compound 0.5 μM
[14] = human liver microsomes 0.5 mg/mL, with NADPH, compound 0.5 μM, 37° C., read-out: Human Liver Microsomal Stability t1/2
[15] = human liver microsomes 0.5 mg/mL, with NADPH, compound 0.5 μM, read-out: Human Liver Microsomal Stability CLint (uL/min/mg liver) (converted)
[16] = human liver microsomes, no NADPH, compound 0.5 μM
[17] = simulated gi fluid, 1 h, pH 1.2
[18] = simulated gi fluid, 1 h, pH 6.8
[19] = pH 7.4, 50 mM phosphate buffer, 16-24 hours, room temperature, read-out: Solubility pH 7.4
[20] = buffer, pH 2.0, room temperature, read-out: Solubility pH 2.0
[21] = simulated gi fluid, SIF with pancreatin pH 6.8, 37° C., 2 μg/mL, read-out: SIF t1/2
[22] = dog liver microsomes 0.5 mg/mL, compound 0.5 μM, read-out: Dog Liver Microsomal Stability CLint (uL/min/mg liver)
[23] = dog liver microsomes 0.5 mg/mL, compound 0.5 μM, read-out: Dog Liver Microsomal Stability t1/2

| SMILES | SGF (% remain, 60 min) [1, 9] [%] | SIF (% remain, 60 min) [2, 10] [%] | Comments: production of GNX (ganaxolone) in rat liver microsomes ([3]; rat liver microsomes) | half-life [3, 11] [min] | microsomal CLint [3, 12] [µL/min/mg] | Rat Liver Microsomal Stability no NADPH, % remain 1 h [3, 13] [%] | Comments: production of GNX (ganaxolone) in human liver microsomes ([4]; human liver microsomes) | half-life [4, 14] [min] | microsomal CLint [4, 15] [µL/min/mg] | Human Liver Microsomal Stability no NADPH, % remain 1 h [4, 16] [%] | Human plasma t90 ([5]; human plasma, 2 μg/mL, 37° C.) [min] | Observations: stability / GNX production in human plasma ([5]; human) | half-life ([5]; human) [h] | Rat plasma t90 ([5]; rat plasma, 2 μg/mL, 37° C.) [min] | half-life ([5]; rat) [h] | solubility [6, 19] [µg/mL] | solubility [6, 20] [µg/mL] | Observations: stability / GNX production in rat plasma ([5]; rat) | further results |
| --- | --- | --- | --- | --- | --- | --- | --- | --- | --- | --- | --- | --- | --- | --- | --- | --- | --- | --- | --- |
| COc1ccccc1N1CCN(CC(=O)O[C@]2(C)CC[C@@]3(C)[C@@H](CC[C@@H]4[C@@H]3CC[C@]3(C)[C@@H](C(C)=O)CC[C@@H]43)C2)CC1 [Compound 100] | 90.8 | 93.2 | GNX not produced in human or rat | 12.7 | 109 | 98.0 | GNX not produced in human or rat | 11.9 | 116 | 100.0 | 27.8 | Stable in human, GNX not | 3.07 | 27.9 | 3.08 |  |  |  |  |
| CC(=O)[C@H]1CC[C@H]2[C@@H]3CC[C@H]4C[C@](C)(OC(=O)CN5CCOCC5)CC[C@]4(C)[C@H]3CC[C@]12C [Compound 101] |  |  | GNX not produced in human or rat |  |  |  | GNX not produced in human or rat |  |  |  |  | Stable in human | 26.9 |  | 37.8 |  |  |  | SGF (% remain, 60 min) [1, 17]: 90.5%; SIF (% remain, 60 min) [2, 18]: 90.2%; half-life ([3]; rat, microsomes): 6.8 min; microsomal CLint ([3]; rat, microsomes): 204 µL/min/mg; Rat Liver Microsomal Stability no NADPH, % remain 1 h ([3]; rat, microsomes): 100.0%; half-life ([4]; human, microsomes): 10.2 min; microsomal CLint ([4]; human, microsomes): 137 µL/min/mg; Human Liver Microsomal Stability no NADPH, % remain 1 h ([4]; human, microsomes): 99.0%; Human plasma t90 ([5]; human): 243.0 min; Rat plasma t90 ([5]; rat): 342.0 min |
| CC(=O)[C@H]1CC[C@H]2[C@@H]3CC[C@H]4C[C@](C)(OC(=O)COC(=O)CN5CCOCC5)CC[C@]4(C)[C@H]3CC[C@]12C [Compound 200] | 99.0 | 31 |  | 12.1 | 115 | 7.5 |  | 6 | 229 | 1 | 2.19 |  | 0.243 | 1.4 | 0.158 | 29 (≈ 56 µM) | 11800 (≈ 22800 µM) | In rat, compound converted |  |
| CC(=O)[C@H]1CC[C@H]2[C@@H]3CC[C@H]4C[C@](C)(OC(=O)CO)CC[C@]4(C)[C@H]3CC[C@]12C [Compound 201] |  | 98.0 |  | 32.4 | 42.7 | 99.5 | In human, GNX produced | 17.4 | 79.5 | 70 | 313 | compound very slowly | 34.6 | 82 | 9.05 | 33 (≈ 84.5 µM) | 36 (≈ 92.2 µM) | compound very slowly | half-life [2, 21]: 1580 min |
| CC(=O)[C@H]1CC[C@H]2[C@@H]3CC[C@H]4C[C@](C)(OC(=O)COC(=O)C(C)(C)OC(=O)CN(CCO)CCO)CC[C@]4(C)[C@H]3CC[C@]12C [Compound 228] | 89 | 1.7 | In rat no GNX produced; | 16.4 | 84.4 | 15 | In human GNX produced. | 6.2 | 225 | 6 | 1.4 | No GNX produced | 0.15 | 1.8 | 0.2 |  |  | GNX produced in rat | half-life ([1]; simulated gi fluid, SGF with pepsin pH 1.2, 37° C., 2 μg/mL, read-out: SGF t1/2): 8.52 h; half-life [2, 21]: 32 min; microsomal CLint [7, 22]: 129 µL/min/mg; half-life [7, 23]: 10.7 min; Dog Liver Microsomal Stability no NADPH, % remain 1 h ([7]; dog liver microsomes, no NADPH): 12.9%; Observations: stability / GNX production in dog plasma ([8]; dog plasma): No GNX produced; Dog plasma t90 ([8]; dog plasma, 2 μg/mL, 37° C.): 3 min; half-life ([8]; dog plasma, 2 μg/mL, 37° C., read-out: Dog plasma Half life (t1/2)): 0.333 h |
| CC(=O)OCCN(CCOC(C)=O)CC(=O)OC(C)(C)C(=O)OCC(=O)O[C@]1(C)CC[C@@]2(C)[C@@H](CC[C@@H]3[C@@H]2CC[C@]2(C)[C@@H](C(C)=O)CC[C@@H]32)C1 [Compound 229] |  |  |  |  |  |  |  | 6.1 | 227 | 1 |  |  |  |  |  | 11 (≈ 15.6 µM) | 22 (≈ 31.2 µM) |  | microsomal CLint [7, 22]: 224 µL/min/mg; half-life [7, 23]: 6.2 min; Dog Liver Microsomal Stability no NADPH, % remain 1 h ([7]; dog liver microsomes, no NADPH): 1% |
| CC(=O)OCCN(C)CC(=O)OC(C)(C)C(=O)OCC(=O)O[C@]1(C)CC[C@@]2(C)[C@@H](CC[C@@H]3[C@@H]2CC[C@]2(C)[C@@H](C(C)=O)CC[C@@H]32)C1 [Compound 242] |  |  |  |  |  |  |  |  |  |  |  | No GNX produced | 0.55 |  |  |  |  |  | SGF (% remain, 60 min) [1, 17]: 99.1%; half-life ([1]; simulated gi fluid, pH 1.2): 76.6 h; SIF (% remain, 60 min) [2, 18]: 29%; half-life ([2]; simulated gi fluid, pH 6.8): 146 min; half-life ([4]; human, microsomes): 1.41 min; microsomal CLint ([4]; human, microsomes): 982 µL/min/mg; Human Liver Microsomal Stability no NADPH, % remain 1 h ([4]; human, microsomes): 0.26%; half-life ([7]; dog, microsomes): 2.07 min; microsomal CLint ([7]; dog, microsomes): 668 µL/min/mg; Dog Liver Microsomal Stability no NADPH, % remain 1 h ([7]; dog, microsomes): 0.89%; Human plasma t90 ([5]; human): 4.99 min; Dog plasma t90 ([8]; dog): 578 min; Observations: stability / GNX production in dog plasma ([8]; dog plasma): No GNX produced; half-life ([8]; dog plasma): 64 h |
